Measurements from PubChem BioAssay AID256 (DTP/NCI, 2004).
“And” between values parts separate entries of the source, which are not always exact repeats. Equal entries are not always repeated. Toxic doses and inconclusive results are not listed. Rule for the calls: active = survival T/C of 150% or more; inactive = T/C below 125% in these data.

Tested on: CD2F1 mice, L1210 leukemia ip, survival T/C
Assay: NCI In Vivo Anticancer Drug Screen. Data for tumor model L1210 Leukemia (intraperitoneal) in CD2F1 (CDF1) mice
Conditions: higher = longer survival
Procedure, shortened: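 Transplantable tumor in mice; compound-treated vs vehicle-treated groups. Read-out = treated/control ratio of the measured endpoint.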

[1] = endpoint: mean survival time, dose: 100.0 mg/kg/injection, schedule: Q01DX001 (ip), vehicle: saline with Tween-80
[2] = endpoint: mean survival time, dose: 100.0 mg/kg/injection, schedule: Q01DX009 (ip), vehicle: saline with Tween-80
[3] = endpoint: mean survival time, dose: 100.0 mg/kg/injection, schedule: Q04DX003 (ip), vehicle: saline with Tween-80
[4] = endpoint: mean survival time, dose: 200.0 mg/kg/injection, schedule: Q01DX001 (ip), vehicle: saline with Tween-80
[5] = endpoint: mean survival time, dose: 200.0 mg/kg/injection, schedule: Q01DX009 (ip), vehicle: saline with Tween-80
[6] = endpoint: mean survival time, dose: 200.0 mg/kg/injection, schedule: Q04DX003 (ip), vehicle: saline with Tween-80
[7] = endpoint: mean survival time, dose: 400.0 mg/kg/injection, schedule: Q01DX001 (ip), vehicle: saline with Tween-80
[8] = endpoint: mean survival time, dose: 400.0 mg/kg/injection, schedule: Q01DX009 (ip), vehicle: saline with Tween-80
[9] = endpoint: mean survival time, dose: 400.0 mg/kg/injection, schedule: Q04DX003 (ip), vehicle: saline with Tween-80
[10] = endpoint: mean survival time, dose: 100.0 mg/kg/injection, schedule: Q01DX009 (ip), vehicle: saline
[11] = endpoint: mean survival time, dose: 200.0 mg/kg/injection, schedule: Q01DX009 (ip), vehicle: saline

Measured: T/C

CCOc1ccc2c(c1)c(CC(=O)O)c(C)n2C
inactive: endpoint: mean survival time, dose: 100.0 mg/kg/injection, schedule: Q01DX001 (ip), vehicle: other 95 % of control | endpoint: mean survival time, dose: 200.0 mg/kg/injection, schedule: Q01DX001 (ip), vehicle: other 98 % of control | endpoint: mean survival time, dose: 400.0 mg/kg/injection, schedule: Q01DX001 (ip), vehicle: other 98 % of control

CCCN(CCC)S(=O)(=O)c1ccc(NC(=O)OC2CCC3(C)C(=CCC4C3CCC3(C)C(C(C)CCCC(C)C)CCC43)C2)cc1 (stereo unspecified)
inactive: endpoint: mean survival time, dose: 100.0 mg/kg/injection, schedule: Q01DX001 (sc), vehicle: steriod suspending solution 105 % of control | endpoint: mean survival time, dose: 200.0 mg/kg/injection, schedule: Q01DX001 (sc), vehicle: steriod suspending solution 97 % of control | endpoint: mean survival time, dose: 400.0 mg/kg/injection, schedule: Q01DX001 (sc), vehicle: steriod suspending solution 101 % of control

C[n+]1csc2ccccc21
inactive: [1] 104 % of control | [2] 105 % of control | [3] 103 % of control | [4] 98 % of control | [5] 105 % of control | [6] 103 % of control | [7] 104 % of control | [8] 103 % of control | [9] 105 % of control

Nc1nc(Cl)c2ncn(C3CC(O)C(CO)C3)c2n1 (stereo unspecified)
inactive: [10] 106 % of control | [11] 106 % of control

CC(=O)OCC1OC(OC2C(COC(C)=O)OC(Sc3ccccc3)C(OC(C)=O)C2OC(C)=O)C(OC(C)=O)C(OC(C)=O)C1OC(C)=O (stereo unspecified)
inactive: endpoint: mean survival time, dose: 0.78 mg/kg/injection, schedule: Q01DX009 (ip), vehicle: saline with Tween-80 105 % of control | endpoint: mean survival time, dose: 1.56 mg/kg/injection, schedule: Q01DX009 (ip), vehicle: saline with Tween-80 101 % of control | endpoint: mean survival time, dose: 3.13 mg/kg/injection, schedule: Q01DX009 (ip), vehicle: saline with Tween-80 101 % of control | [2] 95 % of control | [5] 98 % of control | [8] 93 % of control

O=C(CO)C(O)C(O)C(O)C(O)CO (stereo unspecified)
inactive: endpoint: mean survival time, dose: 100.0 mg/kg/injection, schedule: Q01DX001 (ip), vehicle: saline 100 % of control and 105 % of control | endpoint: mean survival time, dose: 200.0 mg/kg/injection, schedule: Q01DX001 (ip), vehicle: saline 102 % of control and 94 % of control | endpoint: mean survival time, dose: 400.0 mg/kg/injection, schedule: Q01DX001 (ip), vehicle: saline 96 % of control

O=C(O)c1ccccc1C(=O)Nc1cc(C(F)(F)F)ccc1Cl
inactive: [2] 104 % of control | [3] 105 % of control | [5] 96 % of control | [6] 105 % of control | [9] 111 % of control

CC(C)CNC(=O)Nc1ccccc1C(F)(F)F
inactive: [2] 96 % of control | [5] 98 % of control | [8] 91 % of control

Cc1ccn(C)c(=N)c1
inactive: endpoint: mean survival time, dose: 100.0 mg/kg/injection, schedule: Q01DX009 (ip), vehicle: saline sonified 97 % of control | [3] 94 % of control | endpoint: mean survival time, dose: 200.0 mg/kg/injection, schedule: Q01DX009 (ip), vehicle: saline sonified 98 % of control | [6] 93 % of control | [9] 93 % of control

CNC(=O)Nc1nncs1
inactive: [2] 97 % of control | [5] 104 % of control | [8] 92 % of control

COC(OC)c1[nH]c(=S)[nH]c(=O)c1Cc1cc(C)ccc1C
inactive: endpoint: mean survival time, dose: 100.0 mg/kg/injection, schedule: Q04DX003 (ip), vehicle: saline sonified 101 % of control | endpoint: mean survival time, dose: 200.0 mg/kg/injection, schedule: Q04DX003 (ip), vehicle: saline sonified 95 % of control | endpoint: mean survival time, dose: 400.0 mg/kg/injection, schedule: Q04DX003 (ip), vehicle: saline sonified 101 % of control

COc1ccc(C2=N/C(=C\c3ccccc3)C(=O)O2)cc1
inactive: [2] 96 % of control | [3] 93 % of control | [5] 90 % of control | [6] 92 % of control | [8] 98 % of control | [9] 89 % of control

O=C(/C=C/c1ccccc1)NC1CC1
inactive: [1] 94 % of control | [4] 89 % of control | [7] 93 % of control

Oc1cc2ccc3c(c2cc1O)CCc1cn[nH]c1-3
inactive: endpoint: mean survival time, dose: 25.0 mg/kg/injection, schedule: Q01DX001 (ip), vehicle: saline with Tween-80 104 % of control | endpoint: mean survival time, dose: 50.0 mg/kg/injection, schedule: Q01DX001 (ip), vehicle: saline with Tween-80 111 % of control | [1] 92 % of control

CCOc1ccc(N2C(=O)CC(Sc3ccccc3N)C2=O)cc1 (stereo unspecified)
inactive: endpoint: mean survival time, dose: 100.0 mg/kg/injection, schedule: Q01DX009 (ip), vehicle: acetone 93 % of control | endpoint: mean survival time, dose: 200.0 mg/kg/injection, schedule: Q01DX009 (ip), vehicle: acetone 104 % of control | endpoint: mean survival time, dose: 400.0 mg/kg/injection, schedule: Q01DX009 (ip), vehicle: acetone 112 % of control

COC1OC(C(COC(C)=O)OC(C)=O)C(OC(C)=O)C(OC(C)=O)C1OC(C)=O (stereo unspecified)
inactive: [2] 95 % of control | [5] 102 % of control | [8] 104 % of control

CC(=O)SC(Cc1ccccc1)(Cc1ccccc1)SC(C)=O
inactive: [3] 97 % of control | [6] 95 % of control | [9] 100 % of control

O=c1nc(NCc2cccs2)ccn1C1OC(CO)C(O)C1O (stereo unspecified)
inactive: endpoint: median survival time, dose: 12.5 mg/kg/injection, schedule: Q01DX005 (ip), vehicle: water 104 % of control | endpoint: median survival time, dose: 25.0 mg/kg/injection, schedule: Q01DX005 (ip), vehicle: water 103 % of control | endpoint: median survival time, dose: 50.0 mg/kg/injection, schedule: Q01DX005 (ip), vehicle: water 103 % of control | endpoint: median survival time, dose: 100.0 mg/kg/injection, schedule: Q01DX005 (ip), vehicle: water 102 % of control | endpoint: median survival time, dose: 200.0 mg/kg/injection, schedule: Q01DX005 (ip), vehicle: water 102 % of control

O=C1OC(Cc2ccccc2)(c2ccccc2)c2ccccc21 (stereo unspecified)
inactive: [3] 88 % of control | [6] 88 % of control

Cc1noc2nc(-c3ccccc3)cc(N3CCN(C)CC3)c12
inactive: endpoint: median survival time, dose: 12.5 mg/kg/injection, schedule: Q01DX005 (ip), vehicle: other 100 % of control | endpoint: median survival time, dose: 25.0 mg/kg/injection, schedule: Q01DX005 (ip), vehicle: other 103 % of control | endpoint: median survival time, dose: 50.0 mg/kg/injection, schedule: Q01DX005 (ip), vehicle: other 98 % of control | endpoint: median survival time, dose: 100.0 mg/kg/injection, schedule: Q01DX005 (ip), vehicle: other 97 % of control | endpoint: median survival time, dose: 200.0 mg/kg/injection, schedule: Q01DX005 (ip), vehicle: other 98 % of control

O=c1[nH]c2ncnc(N=Nc3ncnc4[nH]c(=O)[nH]c34)c2[nH]1
inactive: endpoint: mean survival time, dose: 12.5 mg/kg/injection, schedule: Q01DX005 (ip), vehicle: distilled water + Tween-80 98 % of control | endpoint: mean survival time, dose: 25.0 mg/kg/injection, schedule: Q01DX005 (ip), vehicle: distilled water + Tween-80 89 % of control | endpoint: mean survival time, dose: 50.0 mg/kg/injection, schedule: Q01DX005 (ip), vehicle: distilled water + Tween-80 91 % of control | endpoint: mean survival time, dose: 100.0 mg/kg/injection, schedule: Q01DX005 (ip), vehicle: distilled water + Tween-80 94 % of control | endpoint: mean survival time, dose: 200.0 mg/kg/injection, schedule: Q01DX005 (ip), vehicle: distilled water + Tween-80 96 % of control

CN1CCC(C#N)(c2ccccn2)CC1
inactive: endpoint: mean survival time, dose: 5.0 mg/kg/injection, schedule: Q01DX009 (ip), vehicle: saline with Tween-80 95 % of control | endpoint: mean survival time, dose: 5.0 mg/kg/injection, schedule: Q01DX009 (ip), vehicle: saline 103 % of control | endpoint: mean survival time, dose: 10.0 mg/kg/injection, schedule: Q01DX009 (ip), vehicle: saline with Tween-80 91 % of control | endpoint: mean survival time, dose: 10.0 mg/kg/injection, schedule: Q01DX009 (ip), vehicle: saline 106 % of control | endpoint: mean survival time, dose: 20.0 mg/kg/injection, schedule: Q01DX009 (ip), vehicle: saline 97 % of control

N#CC(C#N)=NNc1ccc(S(=O)(=O)O)cc1
inactive: [10] 93 % of control | [11] 95 % of control | endpoint: mean survival time, dose: 400.0 mg/kg/injection, schedule: Q01DX009 (ip), vehicle: saline 95 % of control
